The text below walks through data of publication PMC5340791, “New approaches for the reliable in vitro assessment of binding affinity based on high-resolution real-time data acquisition of radioligand-receptor binding kinetics” (EJNMMI Research, 2017).

The target in data set [1] is T1, human adenosine A3 receptor (CHO-K1-hA3R cells) (Homo sapiens, UniProt P0DMS8).
T1 construct: expressed in transfected cells
T1 sequence (P0DMS8 1-318): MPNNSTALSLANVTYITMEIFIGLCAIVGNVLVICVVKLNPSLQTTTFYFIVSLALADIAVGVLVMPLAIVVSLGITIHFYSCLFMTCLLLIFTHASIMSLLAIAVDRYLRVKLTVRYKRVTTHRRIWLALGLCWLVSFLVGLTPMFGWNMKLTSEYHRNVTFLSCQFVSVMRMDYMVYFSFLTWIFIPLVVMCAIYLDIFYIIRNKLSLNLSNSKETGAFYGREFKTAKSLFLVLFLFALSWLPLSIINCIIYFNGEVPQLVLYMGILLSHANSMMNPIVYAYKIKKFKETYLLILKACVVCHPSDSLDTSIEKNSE
The data set is described as follows: Competitive real-time cell-binding studies (LigandTracer), displacement of [125I]-AB-MECA. The note with it: 0.7 nM [125I]-AB-MECA, ambient temperature, Cheng-Prusoff, mean ± SEM, three independent experiments. The protocol: The measurements were made according to the assay protocol as previously described above. […] The experiments were initiated with a baseline measurement (10–15 min). […] Inhibition of the radioligand was performed by adding different concentration series (1–500 nM) of unlabelled compounds (A3R antagonists) each after visual binding equilibrium. At least four different concentrations of competitor, spanning three orders of magnitude adjusted appropriately for the IC50 of each compound, were used. Unspecific binding was determined in the presence of a high concentration (0.5–100 μM) of the non-labelled competitor substance. The observed association phase of the radioligand and the dissociation phase of each consecutive concentration of the competitor substance were monitored in real-time until visual binding equilibrium was reached. All non-labelled compounds were initially dissolved in DMSO and diluted with deionized water to the final concentration, where the amount of DMSO never exceeded 5%. Cytophysiological conditions and cell attachment were examined continuously during the whole course of the experiment with the perimeter trace of the LigandTracer® software (version 1.0.1).
Raw data from the LigandTracer® measurements were analysed in GraphPad Prism 6.0 (GraphPad Software, Inc., San Diego, CA). Experiments were conducted at least as a triplicate with different batches of radioligand and biological target material to avoid systematic bias and to assure statistical certainty. […] Transformed data was analysed using “one-phase association” curve fitting algorithm as outlined in the following equation:2 Y=Y0+Plateau−Y0*1−e^−k*x where “x” is a given time and “Y” corresponds to the amount of radioligand binding for a dedicated time point. “Y 0” is the initial value of “Y” at the beginning of radioligand incubation and “plateau” indicates the maximum amount of the bound radioligand after equilibrium. “k” is the rate constant expressed in reciprocal units of “x”.
Transformed data were analysed by using “dissociation—one-phase exponential decay” curve fit as follows:3 Y=Y0−NS*e^−k*x+NS where “x” is a given time and “Y” corresponds to the amount of bound radioligand for a dedicated time point. “Y 0” is the initial value of “Y” at the beginning of each dissociation phase and “NS” indicates the steady state of radioligand binding in the presence of dedicated cold competitor after infinite time. “k” is the rate constant expressed in reciprocal units of “x”.
Equilibrium binding data determined in Eqs. (2) and (3) served as input parameters for the calculation of the IC50 using “log(inhibitor) vs. response—variable slope (four parameters)” nonlinear regression algorithm as described below:4 Y=Bottom+Top−Bottom/1+10^logIC50−C*HillSlope where “C” is the logarithm of the competitor concentration and “Y” reflects the dedicated amount of bound radioligand at equilibrium obtained from Eq. (3). “Top” indicates the maximum amount of radioligand binding (without any competitor) whereas the corresponding value is derived from Eq. (2). “Bottom” expresses the amount of unspecific radioligand binding in presence of a very high concentration of competitor. The dedicated value is determined by Eq. (3) and corresponds to the “NS” value of the last inhibitor concentration. The “HillSlope” reflects the slope factor, which indicates the steepness of the resulting inhibition curve. […] The resulting IC50 was converted into the K i using Cheng-Prusoff Eq. (3).
In general terms: In a radioligand displacement assay an active substance lowers the binding of a labelled ligand.

Data set [2] in a line: HPLC-based measurement of the logarithm of the octanol-water partition coefficient (HPLClogD7.4). Format: physicochemical. The following applies: pH 7.4, HPLC-based assay; mean ± SEM of three independent experiments. Here is the method:
The logarithm of the octanol-water partition coefficient of the A3R antagonists were determined at pH 7.4 by high-performance liquid chromatography (HPLC)-based assay (HPLClogD^7.4) modified from Donovan and Pescatore. Briefly, a mixture of two internal standards (toluene and triphenylene) with known logD values and defined retention times (k’) have been used. A3R antagonists were dissolved in methanol and injected onto a short polymeric ODP-50 column (20 × 4.0 mm, 5 μm pore size, Supelco, Bellefonte, PA, USA). A linear gradient from 10% methanol/90% phosphate buffer (25 mM, pH 7.4) to 100% methanol within 9.4 min at a flow rate of 1.5 mL/min were applied. Measurement and detection of the three retention times of toluene, triphenylene and A3R antagonists were performed at 260 and 285 nm. Between consecutive HPLC runs, 5 min for re-equilibration of the HPLC column were allowed. The logD values of the dedicated compounds were determined using the known logD values of triphenylene and toluene and the retention time of triphenylene, toluene and the unknown compounds according to the following formula:1 logPUnknown=logPtol−logPtriph*tUnknown+ttol*logPtriph−ttriph*logPtol/ttol−ttriph where “log P Unknown” is the logD value of the test compound and “t Unknown” the corresponding measured retention time of the dedicated substance. The logD values for the internal standards are abbreviated as “log P tol” (toluene) and “log P triph” (triphenylene), respectively. Measured retention times are indicated as “t tol” for toluene and “t triph” for triphenylene.

Data set [3] deals with human A3R. On the set-up: method as in PMID 11462807, PMID 8190112, PMID 8576921. The following applies: traditional binding assays, membranes from human A3R-transfected HEK-293 cells; ref [30], [32], [33]; read-out: Ki Literature; cited from earlier work.
Data set [4] deals with human A3R. The following applies: traditional saturation binding assays, membranes from human A3R-transfected HEK-293 cells; ref [29]; read-out: K d (Reported affinity); cited from earlier work.

Molecules are shown by their SMILES.

Turning to `CCc1nc(-c2ccccc2)c(C(=O)OC)c(CC)c1C(=O)SC` [(Me)^2@SUPPY, methyl 4,6-diethyl-5-[(methylsulfanyl)carbonyl]-2-phenylpyridine-3-carboxylate], affinity in data set [1] was put at a Ki of 46.1 ± 6.66 nM. For the same compound, in data set [2], the chromatographic logD (usually a lipophilicity value derived from retention on a column) is 3.66 ± 0.33.
On to `CCSC(=O)c1c(CC)nc(-c2ccccc2)c(C(=O)OCCF)c1CC` [FE@SUPPY, 5-(2-fluoroethyl)2,4-diethyl-3-(ethylsulfanylcarbonyl)-6-phenylpyridine-5-carboxylate], for which the Ki – broadly, the dissociation constant of the complex between target and ligand, obtained from inhibition or displacement – in data set [1] came out at 8.51 ± 1.46 nM. For the same compound, the chromatographic logD in data set [2] was 4.04 ± 0.36.
Taken in the same sequence, the figures for `CCc1nc(-c2ccccc2)c(C(=O)OCCF)c(CC)c1C(=O)SCCF` [(FE)^2@SUPPY, 2-fluoroethyl 4,6-diethyl-5-{[(2-fluoroethyl)sulfanyl]carbonyl}-2-phenylpyridine-3-carboxylate] were 8.05 ± 1.77 nM and 3.95 ± 0.38.
Turning to `CCCOC(=O)c1c(-c2ccccc2)nc(CC)c(C(=O)SCC)c1CCC` [MRS1523, 2,3-ethyl-4,5-dipropyl-6-phenylpyridine-3-thiocarboxylate-5-carboxylate, reference compound], the results for the Ki (in data set [1]; on human A3R [3]) were 17.8 ± 2.88 nM and 18.9 ± 4.1 nM, respectively. This compound also had a chromatographic logD in data set [2] of 4.85 ± 0.01.
As to `CNC(=O)[C@H]1O[C@@H](n2cnc3c(NCc4ccc(N)c(I)c4)ncnc32)[C@H](O)[C@@H]1O` [[^125I]-AB-MECA, [^125I]-4-aminobenzyl-5′-N-methylcarboxamideoadenosine], the Kd on human A3R [4] was 0.59 ± 0.02 nM.
Compound `CCOC(=O)c1c(-c2ccccc2)nc(CC)c(C(=O)SCCF)c1CC` [FE@SUPPY:2, 5-ethyl 2,4-diethyl-3-((2-fluoroethyl)sulfanylcarbonyl)-6-phenylpyridine-5-carboxylate] showed a Ki in data set [1] of 8.24 ± 2.35 nM. In data set [2], this compound displayed a chromatographic logD of 4.05 ± 0.36.
The matching figures for `CCSC(=O)c1c(CC)nc(-c2ccccc2)c(C(=O)O)c1CC` [DFE@SUPPY, 4,6-diethyl-5-[(ethylsulfanyl)carbonyl]-2-phenylpyridine-3-carboxylic acid]: 114 ± 16.9 nM and 0.97 ± 0.37.
In data set [2], `CCOC(=O)C1=C(C)NC(c2ccccc2)=C(C(=O)OCc2ccccc2)C1C#Cc1ccccc1` (centres unmarked) [MRS1191, 1,4-dihydro-2-methyl-6-phenyl-4-(phenylethynyl)-3,5-pyridinedicarboxylic acid, 3-ethyl 5-(phenylmethyl) ester, reference compound] gave a chromatographic logD of 4.83 ± 0.01.
`CCc1nc(-c2ccccc2)c(C(=O)OC)c(CC)c1C(=O)SCCF` [FEMe@SUPPY:2, methyl 4,6-diethyl-5-{[(2-fluoroethyl)sulfanyl]carbonyl}-2-phenylpyridine-3-carboxylate]: affinity in data set [1] was put at a Ki of 41.2 ± 3.91 nM. This compound showed a chromatographic logD in data set [2] of 3.83 ± 0.36.
